Laboratory results taken from BindingDB's records for doi:10.1021/jm960274q (Basf, 1996).

target: Endothelin receptor type B (Cavia porcellus); assay: Binding affinity towards Endothelin B receptor by measuring its ability to displace [125I]ET-3 from guinea pig cerebellum

SMILES | Ki [nM]
CCOc1cc(OCC)nc(OC(C(=O)O)C(OC)(c2ccccc2)c2ccccc2)n1 (centres undefined) [2-(4,6-Diethoxy-pyrimidin-2-yloxy)-3-methoxy-3,3-diphenyl-propionic acid] | 2500
COc1cc(OC)nc(OC(C(=O)O)C(OC)(c2ccccc2F)c2ccccc2F)n1 (centres undefined) [2-(4,6-Dimethoxy-pyrimidin-2-yloxy)-3,3-bis-(2-fluoro-phenyl)-3-methoxy-propionic acid] | 6000
COc1cc(OC)nc(OC(C(=O)O)C(OC)(c2cccc(F)c2)c2cccc(F)c2)n1 (centres undefined) [2-(4,6-Dimethoxy-pyrimidin-2-yloxy)-3,3-bis-(3-fluoro-phenyl)-3-methoxy-propionic acid] | 1800
COc1cc(OC)nc(OC(C(=O)O)C(O)(c2ccccc2)c2ccccc2)n1 (centres undefined) [2-(4,6-Dimethoxy-pyrimidin-2-yloxy)-3-hydroxy-3,3-diphenyl-propionic acid] | 3500
COc1cc(OC)nc(OC(C(=O)O)C(OC)(c2cccc(C)c2)c2cccc(C)c2)n1 (centres undefined) [2-(4,6-Dimethoxy-pyrimidin-2-yloxy)-3-methoxy-3,3-di-m-tolyl-propionic acid] | 1300
COc1cc(OC)nc(OC(C(=O)O)C(OC)(c2ccc(C)cc2)c2ccc(C)cc2)n1 (centres undefined) [2-(4,6-Dimethoxy-pyrimidin-2-yloxy)-3-methoxy-3,3-di-p-tolyl-propionic acid] | 1000
COc1cc(OC)nc(OC(C(=O)O)C(Oc2ccccc2)(c2ccccc2)c2ccccc2)n1 (centres undefined) [2-(4,6-Dimethoxy-pyrimidin-2-yloxy)-3-phenoxy-3,3-diphenyl-propionic acid] | 1500
CCc1cc(C)nc(OC(C(=O)O)C(OC)(c2ccccc2)c2ccccc2)n1 (centres undefined) [2-(4-Ethyl-6-methyl-pyrimidin-2-yloxy)-3-methoxy-3,3-diphenyl-propionic acid] | 160
COc1cc(OC)nc(OC(C(=O)O)C(OC)(c2ccc(Cl)cc2)c2ccc(Cl)cc2)n1 (centres undefined) [3,3-Bis-(4-chloro-phenyl)-2-(4,6-dimethoxy-pyrimidin-2-yloxy)-3-methoxy-propionic acid] | 1300
